# Assay results as given in article PMC8364938 (MicrobiologyOpen, 2021).
# System: 9His-cgLAAO1
# Assay: coupled peroxidase/o-dianisidine assay, Hanes-Woolf
# Assay type: biochemical, Colletotrichum gloeosporioides
# Settings: 50 mM TEA/HCl pH 7.0, 30 °C
row,SMILES,Km [µM]
1,NC(=O)CC[C@H](N)C(=O)O [L-glutamine],760 ± 100
2,COC(=O)[C@@H](N)CC(C)C [L-leucine methyl ester],12900 ± 300
3,CC(C)C[C@H](N)C(=O)O [L-leucine],1200 ± 200
4,CSCC[C@H](N)C(=O)O [L-methionine],1060 ± 500
5,N[C@@H](Cc1ccccc1)C(=O)O [L-phenylalanine],320 ± 30
